Results taken from patent US6355799B1, “Substituted benzene compounds, process for their preparation, and herbicidal and defoliant compositions containing them” (ISK Americas Incorporated, priority 1997, dated 2002).

Key:
Type in all cases: in vivo
[1] = tested on: redroot pigweed (Amaranthus retroflexus, AMARE); assay: Pre-emerge test, greenhouse herbicide activity screening; conditions: pre-emerge, 14 days after application, scale 0-100
Outline: (§1)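 Herbicidal damage is scored 0 (none) to 100 (complete plant death) two weeks after a simulated field spray. Rates span 15–1000 g ai/ha, delivered in acetone at 187 l/ha. For post-emergence treatments, plants have 2–3 leaves and the spray carries 0.25% v/v non-ionic surfactant.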

[2] = tested on: velvetleaf (Abutilon theophrasti, ABUTH); assay: as above; conditions: pre-emerge, 14 days after application, scale 0-100
Outline: as §1

[3] = tested on: lambsquarters (Chenopodium album, CHEAL); assay: as above; conditions: pre-emerge, 14 days after application, scale 0-100
Outline: as §1

[4] = tested on: large crabgrass (Digitaria sanguinalis, DIGSA); assay: as above; conditions: pre-emerge, 14 days after application, scale 0-100
Outline: as §1

[5] = tested on: green foxtail (Setaria viridis, SETVI); assay: as above; conditions: pre-emerge, 14 days after application, scale 0-100
Outline: as §1

[6] = tested on: johnsongrass (Sorghum halepense, SORHA); assay: as above; conditions: pre-emerge, 14 days after application, scale 0-100
Outline: as §1

[7] = tested on: barnyardgrass (Echinochloa crus-galli, ECHCG); assay: as above; conditions: pre-emerge, 14 days after application, scale 0-100
Outline: as §1

[8] = tested on: ivyleaf morningglory (Ipomoea hederacea, IPOHE); assay: as above; conditions: pre-emerge, 14 days after application, scale 0-100
Outline: as §1

[9] = tested on: sicklepod (Cassia obtusifolia, CASOB); assay: as above; conditions: pre-emerge, 14 days after application, scale 0-100
Outline: as §1

[10] = tested on: velvetleaf (Abutilon theophrasti, ABUTH); assay: Post-emerge test, greenhouse herbicide activity screening; conditions: post-emerge, 14 days after application, rating scale 0-100
Outline: (§2)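 Visual ratings on a 0-100 scale (0 no damage, 100 all plants dead) were taken at 14 days after treatment. Rates of 15-1000 g ai/ha in acetone, 187 l/ha, were sprayed onto soil one day after planting (pre-emerge) or onto 2-3 leaf plants with 0.25% v/v surfactant (post-emerge).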

[11] = tested on: lambsquarters (Chenopodium album, CHEAL); assay: as above; conditions: post-emerge, 14 days after application, rating scale 0-100
Outline: as §2

[12] = tested on: large crabgrass (Digitaria sanguinalis, DIGSA); assay: as above; conditions: post-emerge, 14 days after application, rating scale 0-100
Outline: as §2

[13] = tested on: green foxtail (Setaria viridis, SETVI); assay: as above; conditions: post-emerge, 14 days after application, rating scale 0-100
Outline: as §2

[14] = tested on: redroot pigweed (Amaranthus retroflexus, AMARE); assay: as above; conditions: post-emerge, 14 days after application, rating scale 0-100
Outline: as §2

[15] = tested on: barnyardgrass (Echinochloa crus-galli, ECHCG); assay: as above; conditions: post-emerge, 14 days after application, rating scale 0-100
Outline: as §2

[16] = tested on: ivyleaf morningglory (Ipomoea hederacea, IPOHE); assay: as above; conditions: post-emerge, 14 days after application, rating scale 0-100
Outline: as §2

[17] = tested on: sicklepod (Cassia obtusifolia, CASOB); assay: as above; conditions: post-emerge, 14 days after application, rating scale 0-100
Outline: as §2

[18] = tested on: field corn (Zea mays L., var. Dekalb 535, CORN); assay: Post-emerge test, crop safety; conditions: post-emerge, 14 days after application, rating scale 0-100
Outline: as §1

[19] = tested on: upland rice (Oryza sp., var. Tebonnet, RICE); assay: Post-emerge test, crop safety; conditions: post-emerge, 14 days after application, rating scale 0-100
Outline: as §1

[20] = tested on: field corn (Zea mays L., var. Dekalb 535, CORN); assay: Pre-emerge test, crop safety; conditions: pre-emerge, 14 days after application, scale 0-100
Outline: (§3)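 Sandy loam pots; pre-emerge: sown 1 d pre-spray, surface-watered after, then bottom-watered. Post-emerge: sown 8–21 d before, 2–3 leaf stage, + 0.25% v/v NIS, bottom-watered. Acetone, 187 l/ha track spray, 15–1000 g ai/ha. 0–100 injury score, day 14.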

[21] = tested on: upland rice (Oryza sp., var. Tebonnet, RICE); assay: Pre-emerge test, crop safety; conditions: pre-emerge, 14 days after application, scale 0-100
Outline: as §3

Cn1c(C(F)(F)F)cc(=O)n(-c2ccc(Cl)cc2NC(=O)C=Cc2ccccc2)c1=O [2-137]
20: phytotoxicity rating RICE (crop damage) ([21]; 63 g ai/ha)
0: phytotoxicity rating SORHA ([6]; 63 g ai/ha) | DIGSA phytotoxicity rating ([12]; 63 g ai/ha) | ECHCG phytotoxicity rating ([15]; 63 g ai/ha) | phytotoxicity rating CORN (crop damage) ([20]; 63 g ai/ha)
90: IPOHE phytotoxicity rating ([16]; 250 g ai/ha) | CASOB phytotoxicity rating ([17]; 250 g ai/ha)
60: phytotoxicity rating SETVI ([5]; 250 g ai/ha) | CORN phytotoxicity rating (crop damage) ([18]; 250 g ai/ha)
80: phytotoxicity rating ABUTH ([2]; 63 g ai/ha)
100: phytotoxicity rating AMARE ([1]; 63 g ai/ha) | phytotoxicity rating AMARE ([1]; 250 g ai/ha) | phytotoxicity rating ABUTH ([2]; 250 g ai/ha) | phytotoxicity rating CHEAL ([3]; 63 g ai/ha) | phytotoxicity rating CHEAL ([3]; 250 g ai/ha) | phytotoxicity rating DIGSA ([4]; 250 g ai/ha) | ABUTH phytotoxicity rating ([10]; 63 g ai/ha) | ABUTH phytotoxicity rating ([10]; 250 g ai/ha) | CHEAL phytotoxicity rating ([11]; 63 g ai/ha) | CHEAL phytotoxicity rating ([11]; 250 g ai/ha) | AMARE phytotoxicity rating ([14]; 63 g ai/ha) | AMARE phytotoxicity rating ([14]; 250 g ai/ha) | IPOHE phytotoxicity rating ([16]; 63 g ai/ha) | CASOB phytotoxicity rating ([17]; 63 g ai/ha)
30: phytotoxicity rating SETVI ([5]; 63 g ai/ha) | phytotoxicity rating IPOHE ([8]; 63 g ai/ha) | phytotoxicity rating IPOHE ([8]; 250 g ai/ha) | SETVI phytotoxicity rating ([13]; 250 g ai/ha) | ECHCG phytotoxicity rating ([15]; 250 g ai/ha)
10: phytotoxicity rating ECHCG ([7]; 63 g ai/ha) | DIGSA phytotoxicity rating ([12]; 250 g ai/ha) | SETVI phytotoxicity rating ([13]; 63 g ai/ha) | CORN phytotoxicity rating (crop damage) ([18]; 63 g ai/ha) | RICE phytotoxicity rating (crop damage) ([19]; 63 g ai/ha) | phytotoxicity rating CORN (crop damage) ([20]; 250 g ai/ha)
70: phytotoxicity rating SORHA ([6]; 250 g ai/ha) | RICE phytotoxicity rating (crop damage) ([19]; 250 g ai/ha)
50: phytotoxicity rating DIGSA ([4]; 63 g ai/ha) | phytotoxicity rating ECHCG ([7]; 250 g ai/ha) | phytotoxicity rating CASOB ([9]; 63 g ai/ha) | phytotoxicity rating CASOB ([9]; 250 g ai/ha) | phytotoxicity rating RICE (crop damage) ([21]; 250 g ai/ha)

Cn1c(C(F)(F)F)cc(=O)n(-c2ccccc2NC(=O)c2ccc3ccccc3c2)c1=O [2-142]
15: CORN phytotoxicity rating (crop damage) ([18]; 250 g ai/ha)
60: CHEAL phytotoxicity rating ([11]; 250 g ai/ha)
70: phytotoxicity rating CHEAL ([3]; 250 g ai/ha)
0: phytotoxicity rating AMARE ([1]; 63 g ai/ha) | phytotoxicity rating ABUTH ([2]; 63 g ai/ha) | phytotoxicity rating ABUTH ([2]; 250 g ai/ha) | phytotoxicity rating DIGSA ([4]; 63 g ai/ha) | phytotoxicity rating DIGSA ([4]; 250 g ai/ha) | phytotoxicity rating SETVI ([5]; 63 g ai/ha) | phytotoxicity rating SETVI ([5]; 250 g ai/ha) | phytotoxicity rating SORHA ([6]; 63 g ai/ha) | phytotoxicity rating SORHA ([6]; 250 g ai/ha) | phytotoxicity rating ECHCG ([7]; 63 g ai/ha) | phytotoxicity rating ECHCG ([7]; 250 g ai/ha) | phytotoxicity rating IPOHE ([8]; 63 g ai/ha) | phytotoxicity rating IPOHE ([8]; 250 g ai/ha) | phytotoxicity rating CASOB ([9]; 63 g ai/ha) | phytotoxicity rating CASOB ([9]; 250 g ai/ha) | ABUTH phytotoxicity rating ([10]; 63 g ai/ha) | DIGSA phytotoxicity rating ([12]; 63 g ai/ha) | DIGSA phytotoxicity rating ([12]; 250 g ai/ha) | SETVI phytotoxicity rating ([13]; 63 g ai/ha) | SETVI phytotoxicity rating ([13]; 250 g ai/ha) | AMARE phytotoxicity rating ([14]; 63 g ai/ha) | ECHCG phytotoxicity rating ([15]; 63 g ai/ha) | ECHCG phytotoxicity rating ([15]; 250 g ai/ha) | IPOHE phytotoxicity rating ([16]; 63 g ai/ha) | CASOB phytotoxicity rating ([17]; 63 g ai/ha) | RICE phytotoxicity rating (crop damage) ([19]; 250 g ai/ha) | phytotoxicity rating CORN (crop damage) ([20]; 63 g ai/ha) | phytotoxicity rating CORN (crop damage) ([20]; 250 g ai/ha) | phytotoxicity rating RICE (crop damage) ([21]; 63 g ai/ha) | phytotoxicity rating RICE (crop damage) ([21]; 250 g ai/ha)
20: CHEAL phytotoxicity rating ([11]; 63 g ai/ha)
10: CASOB phytotoxicity rating ([17]; 250 g ai/ha) | CORN phytotoxicity rating (crop damage) ([18]; 63 g ai/ha) | RICE phytotoxicity rating (crop damage) ([19]; 63 g ai/ha)
40: phytotoxicity rating AMARE ([1]; 250 g ai/ha) | phytotoxicity rating CHEAL ([3]; 63 g ai/ha) | ABUTH phytotoxicity rating ([10]; 250 g ai/ha) | AMARE phytotoxicity rating ([14]; 250 g ai/ha)
50: IPOHE phytotoxicity rating ([16]; 250 g ai/ha)

COc1c(Cl)cc(F)c(-n2c(=O)cc(C(F)(F)F)n(C)c2=O)c1NC(=O)COc1ccc(Cl)cc1Cl [2-154]
35: phytotoxicity rating RICE (crop damage) ([21]; 63 g ai/ha)
40: SETVI phytotoxicity rating ([13]; 63 g ai/ha)
65: RICE phytotoxicity rating (crop damage) ([19]; 63 g ai/ha)
100: phytotoxicity rating AMARE ([1]; 63 g ai/ha) | phytotoxicity rating AMARE ([1]; 250 g ai/ha) | phytotoxicity rating ABUTH ([2]; 63 g ai/ha) | phytotoxicity rating ABUTH ([2]; 250 g ai/ha) | phytotoxicity rating CHEAL ([3]; 63 g ai/ha) | phytotoxicity rating CHEAL ([3]; 250 g ai/ha) | phytotoxicity rating SETVI ([5]; 250 g ai/ha) | phytotoxicity rating IPOHE ([8]; 250 g ai/ha) | ABUTH phytotoxicity rating ([10]; 63 g ai/ha) | ABUTH phytotoxicity rating ([10]; 250 g ai/ha) | CHEAL phytotoxicity rating ([11]; 63 g ai/ha) | CHEAL phytotoxicity rating ([11]; 250 g ai/ha) | AMARE phytotoxicity rating ([14]; 63 g ai/ha) | AMARE phytotoxicity rating ([14]; 250 g ai/ha) | IPOHE phytotoxicity rating ([16]; 63 g ai/ha) | IPOHE phytotoxicity rating ([16]; 250 g ai/ha) | CASOB phytotoxicity rating ([17]; 250 g ai/ha)
90: RICE phytotoxicity rating (crop damage) ([19]; 250 g ai/ha) | phytotoxicity rating CORN (crop damage) ([20]; 250 g ai/ha)
85: phytotoxicity rating DIGSA ([4]; 63 g ai/ha) | DIGSA phytotoxicity rating ([12]; 250 g ai/ha) | CORN phytotoxicity rating (crop damage) ([18]; 250 g ai/ha)
60: phytotoxicity rating CASOB ([9]; 63 g ai/ha)
70: phytotoxicity rating SETVI ([5]; 63 g ai/ha) | phytotoxicity rating RICE (crop damage) ([21]; 250 g ai/ha)
50: phytotoxicity rating ECHCG ([7]; 63 g ai/ha) | CASOB phytotoxicity rating ([17]; 63 g ai/ha)
10: DIGSA phytotoxicity rating ([12]; 63 g ai/ha) | CORN phytotoxicity rating (crop damage) ([18]; 63 g ai/ha) | phytotoxicity rating CORN (crop damage) ([20]; 63 g ai/ha)
80: phytotoxicity rating SORHA ([6]; 63 g ai/ha) | phytotoxicity rating IPOHE ([8]; 63 g ai/ha) | ECHCG phytotoxicity rating ([15]; 63 g ai/ha)
95: phytotoxicity rating DIGSA ([4]; 250 g ai/ha) | phytotoxicity rating SORHA ([6]; 250 g ai/ha) | phytotoxicity rating ECHCG ([7]; 250 g ai/ha) | phytotoxicity rating CASOB ([9]; 250 g ai/ha) | SETVI phytotoxicity rating ([13]; 250 g ai/ha) | ECHCG phytotoxicity rating ([15]; 250 g ai/ha)
